Patent publication US8623414B2, “Compositions comprising a lipid and copolymer of styrene and maleic acid” (Malvren Cosmeceutics Limited, priority 2005, dated 2014)

Columns and labels:
[1] = Example 5 Supplemental: turbidity meter (Nephla) of compositions with active agents over time (Table 12a); type: physicochemical; settings: SMA 3000P (hydrolysed) 2.5%, lipid 90H 1%, S LPC 0.01%; for clarity: key: Clear: categorised as being clear if there was no significant visible opacity to the naked eye; Cloudy: categorised as cloudy if there was significant visible disruption to the passage of light
Protocol: The turbidity meter was calibrated prior to use, with two known standards (0 and 40 FNU).
After the final stage of sample preparation (i.e. adjustment of the pH to physiological) samples were course filtered through Whatman 541 filter paper to remove any gross matter which could interfere with turbidity measurement. Immediately after filtration the first turbidity measurement was taken. Mixtures were stored at 4° C. following the initial measurement, and remeasured at later time points.

[2] = Example 5: compositions of the invention to solubilise exemplary active agents (visual clarity, pH on clearing, clarity at pH 7); settings: SMA 3000HNa 2.5%, 90H 1%, S LPC 0.01%
Protocol: A stock emulsion of cosurfactant, membrane forming lipid and active was prepared at double the desired final concentration. Cosurfactant was dissolved in water while heating (approximately 50° C.) and stirring. Lipid was then added, followed by continued stirring and heating until a uniform emulsion is formed. The emulsion was then homogenised for 10 minutes. After re-heating to approximately 50° C. the active component was added slowly under stirring until a uniform emulsion was present. The final emulsion was then homogenised for a further 10 minutes.
Stock solutions were prepared by mixing of the hydrolysed polymer with the appropriate volume of water.
Polymer/lipid mixtures were then prepared by the dropwise addition of the lipid containing emulsion to an equal volume of polymer solution while stirring and heating to approximately 50° C.
The pH of the mixtures was adjusted to determine the critical pH level at which macromolecular assemblies formed, and whether the resulting clear and colourless solution would remain at physiological pH.
Percentage values specified in this experiment refer to the weight of the component in question as a proportion of the total weight of the composition.
Mixtures were visually examined to determine whether the polymer/lipid assemblies had solubilised the active agent in the aqueous medium. The clarity of a mixture was categorised as being clear if there was no significant visible opacity to the naked eye, whereas a mixture was categorised as cloudy if there was significant visible disruption to the passage of light.

Row | Compound | Clarity ([1]; active agent 0.1%) | pH on clearing ([1]; active agent 0.1%) | Turbidity at pH 7 (FNU) ([1]; active agent 0.1%) | other results
1 | CC(=O)N1CCN(c2ccc(OCC3COC(Cn4ccnc4)(c4ccc(Cl)cc4Cl)O3)cc2)CC1 (stereo not drawn) [Keta., Ketaconazole, reference compound] | Clear | 8.63 | 40.75 | Clarity ([1]; active agent 0.4%): Clear; pH on clearing ([1]; active agent 0.4%): 8.83; Turbidity at pH 7 (FNU) ([1]; active agent 0.4%): 74.5 FNU
2 | Erythromycin Sulphate [Erythro., reference compound] | Clear | 8.86 | 18.20 | 
3 | Ceramide IIIB [Cera. IIIB] | Clear | 8.98 | 120.7 | 
4 | CC1=C(/C=C/C(C)=C/C=C/C(C)=C/C=C/C=C(C)/C=C/C=C(C)/C=C/C2=C(C)CCCC2(C)C)C(C)(C)CCC1 [β-Car, β-carotene] |  |  |  | Clarity ([2]; active agent 0.1%): Clear; Clarity at pH 7 ([2]; active agent 0.1%): Clear; pH on clearing ([2]; active agent 0.1%): 8.83; Clarity ([2]; active agent 0.25%): Clear; Clarity at pH 7 ([2]; active agent 0.25%): Clear; pH on clearing ([2]; active agent 0.25%): 8.83
5 | C=C1CC[C@H](O)C/C1=C/C=C1\CCC[C@]2(C)[C@@H]([C@H](C)CCCC(C)C)CC[C@@H]12 [Vitamin D3, Cholecalciferol, reference compound] |  |  |  | Clarity ([1]; active agent 0.25%): Clear; pH on clearing ([1]; active agent 0.25%): 8.59; Turbidity at pH 7 (FNU) ([1]; active agent 0.25%): 19.78 FNU
6 | CCCC(=O)O[C@]1(C(=O)CCl)[C@H](C)C[C@@H]2[C@@H]3CCC4=CC(=O)C=C[C@]4(C)[C@]3(F)C(=O)C[C@@]21C [Clo. But] | Clear | 8.94 | 63.0 | 
7 | CC12CCC(C(=Cc3ccccc3)C1=O)C2(C)C (stereo not drawn) [Unisol S-22, 3-Benzylidene camphor] |  |  |  | Clarity ([1]; active agent 0.15%): Clear; pH on clearing ([1]; active agent 0.15%): 8.94; Turbidity at pH 7 (FNU) ([1]; active agent 0.15%): 9.46 FNU
8 | CCCCCCCCCCCCCCCC(=O)OC[C@H](O)[C@H]1OC(=O)C(OC(=O)CCCCCCCCCCCCCCC)=C1O [CP] |  |  |  | Clarity ([2]; active agent 0.1%): Clear; Clarity at pH 7 ([2]; active agent 0.1%): Clear; pH on clearing ([2]; active agent 0.1%): 8.89
9 | CCCCCCCCC(CCCCCC)C(=O)OC[C@H](OC(=O)C(CCCCCC)CCCCCCCC)[C@H]1OC(=O)C(OC(=O)C(CCCCCC)CCCCCCCC)=C1OC(=O)C(CCCCCC)CCCCCCCC (stereo partly drawn) [VC-IP] |  |  |  | Clarity ([2]; active agent 0.1%): Clear; Clarity at pH 7 ([2]; active agent 0.1%): Clear; pH on clearing ([2]; active agent 0.1%): 8.89
10 | COc1ccc(C(=O)CC(=O)c2ccc(C(C)(C)C)cc2)cc1 [Avobenzene] | Clear | 8.88 | 62.0 | 
11 | CC(=O)OCC(=O)[C@@]1(O)CC[C@H]2[C@@H]3CCC4=CC(=O)CC[C@]4(C)[C@H]3C(=O)C[C@@]21C [Cort. A., Cortisone Acetate, reference compound] |  |  |  | Clarity ([1]; active agent 0.25%): Clear; pH on clearing ([1]; active agent 0.25%): 8.87; Turbidity at pH 7 (FNU) ([1]; active agent 0.25%): 14.28 FNU
12 | CC(C)CCC[C@@H](C)[C@H]1CC[C@H]2[C@@H]3CC=C4C[C@@H](OS(=O)(=O)O)CC[C@]4(C)[C@H]3CC[C@]12C [Chol Sulphate] | Clear | 8.81 | 17.81 | 
13 | CC(=O)OCC(=O)[C@@]1(O)[C@H](C)C[C@H]2[C@@H]3CCC4=CC(=O)C=C[C@]4(C)[C@@]3(F)[C@@H](O)C[C@@]21C [DEX A.A., Dexamethasone Acetate Anhydrous, reference compound] |  |  |  | Clarity ([1]; active agent 0.25%): Clear; pH on clearing ([1]; active agent 0.25%): 8.84; Turbidity at pH 7 (FNU) ([1]; active agent 0.25%): 10.52 FNU
14 | CCC(=O)O[C@]1(C(=O)CCl)[C@@H](C)C[C@H]2[C@@H]3CCC4=CC(=O)C=C[C@]4(C)[C@@]3(F)[C@@H](O)C[C@@]21C [Clo. P, Clobetasol Propionate, reference compound] | Clear | 8.85 | 50 | 

Second part, led by results:

Row | Clarity ([1]; active agent 0.1%) | pH on clearing ([1]; active agent 0.1%) | Turbidity at pH 7 (FNU) ([1]; active agent 0.1%) | Compound | other results
15 | Clear | 8.82 | 42.80 | NC[C@@H]1O[C@H](O[C@H]2[C@@H](O)[C@H](O[C@@H]3[C@@H](O)[C@H](N)C[C@H](N)[C@H]3O[C@H]3O[C@H](CN)[C@@H](O)[C@H](O)[C@H]3N)O[C@@H]2CO)[C@H](N)[C@@H](O)[C@@H]1O.O=S(=O)(O)O [Neo. Sulphate, Neomycin Sulphate, reference compound] | 
16 | Clear | 8.89 | 23.20 | Nc1ccc(C(=O)O)cc1 [PABA, 4-Aminobenzoic acid] | 
17 | Clear | 8.98 | 27.7 | CC(Cc1ccc(O)c(O)c1)C(C)Cc1ccc(O)c(O)c1 (stereo not drawn) [NDGA, Nordihydroguaiaretic acid] | 
